Columns and labels:
[1] = system: mono-methyl arginine in RKO cells; assay: RKO Methylation Assay, In Cell Western (ICW) for mono-methyl arginine and DNA content; format: cell-based; conditions: Homo sapiens, RKO, 72 h, RKO cells, 72 hours, mono-methyl arginine, percent activation; single experiment or average of multiple experiments; read-out: EC30 (In Cell Western data, Numerical)
From the text: RKO adherent cells were purchased from ATCC (American Type Culture Collection), Manassas, Va., USA. DMEM/Glutamax medium, penicillin-streptomycin, heat inactivated fetal bovine serum, 0.05% trypsin and D-PBS were purchased from Life Technologies, Grand Island, N.Y., USA. Odyssey blocking buffer, 800CW goat anti-rabbit IgG (H+L) antibody, and Licor Odyssey infrared scanner were purchased from Licor Biosciences, Lincoln, Nebr., USA. Mono-methyl arginine antibody was purchased from Cell Signaling Technology, Danvers, Mass., USA. Methanol was purchased from VWR, Franklin, Mass., USA. 10% Tween 20 was purchased from KPL, Inc., Gaithersburg, Md., USA. DRAQ5 was purchased from Biostatus Limited, Leicestershire, UK.
RKO adherent cells were maintained in growth medium (DMEM/Glutamax medium supplemented with 10% v/v heat inactivated fetal bovine serum and 100 units/mL penicillin-streptomycin) and cultured at 37° C. under 5% CO2.
Cell Treatment, in Cell Western (ICW) for Detection of Mono-Methyl Arginine and DNA Content.
RKO cells were seeded in assay medium at a concentration of 20,000 cells per mL to a poly-D-lysine coated 384 well culture plate (BD Biosciences 356697) with 50 μL per well. Compound (100 nL) from a 96-well source plate was added directly to 384 well cell plate. Plates were incubated at 37° C., 5% CO2 for 72 hours. After three days of incubation, plates were brought to room temperature outside of the incubator for ten minutes and blotted on paper towels to remove cell media. 50 μL of ice cold 100% methanol was added directly to each well and incubated for 30 min at room temperature. After 30 min, plates were transferred to a Biotek EL406 plate washer and washed 2 times with 100 μL per well of wash buffer (1×PBS). Next 60 μL per well of Odyssey blocking buffer (Odyssey Buffer with 0.1% Tween 20 (v/v)) were added to each plate and incubated 1 hour at room temperature. Blocking buffer was removed and 20 μL per well of primary antibody was added (mono-methyl arginine diluted 1:200 in Odyssey buffer with 0.1% Tween 20 (v/v)) and plates were incubated overnight (16 hours) at 4° C. Plates were washed 5 times with 100 μL per well of wash buffer. Next 20 μL per well of secondary antibody was added (1:200 800CW goat anti-rabbit IgG (H+L) antibody, 1:1000 DRAQ5 (Biostatus limited) in Odyssey buffer with 0.1% Tween 20 (v/v)) and incubated for 1 hour at room temperature. The plates were washed 5 times with 100 μL per well wash buffer then 2 times with 100 μL per well of water. Plates were allowed to dry at room temperature then imaged on the Licor Odyssey machine which measures integrated intensity at 700 nm and 800 nm wavelengths. Both 700 and 800 channels were scanned.
First, the ratio for each well was determined by:
Each plate included fourteen control wells of DMSO only treatment (minimum activation) as well as fourteen control wells for maximum activation treated with 20 μM of a reference compound. The average of the ratio values for each control type was calculated and used to determine the percent activation for each test well in the plate. Reference compound was serially diluted three-fold in DMSO for a total of nine test concentrations, beginning at 20 μM. Percent activation was determined and EC30 curves were generated using triplicate wells per concentration of compound.

[2] = biological target: human PRMT3 (Homo sapiens, UniProt O60678); assay: PRMT3 Biochemical Assay (3H-SAM Flashplate, peptide substrate); conditions: single experiment or average of multiple experiments
Sequence of human PRMT3 (O60678 with tags, fused parts or gaps): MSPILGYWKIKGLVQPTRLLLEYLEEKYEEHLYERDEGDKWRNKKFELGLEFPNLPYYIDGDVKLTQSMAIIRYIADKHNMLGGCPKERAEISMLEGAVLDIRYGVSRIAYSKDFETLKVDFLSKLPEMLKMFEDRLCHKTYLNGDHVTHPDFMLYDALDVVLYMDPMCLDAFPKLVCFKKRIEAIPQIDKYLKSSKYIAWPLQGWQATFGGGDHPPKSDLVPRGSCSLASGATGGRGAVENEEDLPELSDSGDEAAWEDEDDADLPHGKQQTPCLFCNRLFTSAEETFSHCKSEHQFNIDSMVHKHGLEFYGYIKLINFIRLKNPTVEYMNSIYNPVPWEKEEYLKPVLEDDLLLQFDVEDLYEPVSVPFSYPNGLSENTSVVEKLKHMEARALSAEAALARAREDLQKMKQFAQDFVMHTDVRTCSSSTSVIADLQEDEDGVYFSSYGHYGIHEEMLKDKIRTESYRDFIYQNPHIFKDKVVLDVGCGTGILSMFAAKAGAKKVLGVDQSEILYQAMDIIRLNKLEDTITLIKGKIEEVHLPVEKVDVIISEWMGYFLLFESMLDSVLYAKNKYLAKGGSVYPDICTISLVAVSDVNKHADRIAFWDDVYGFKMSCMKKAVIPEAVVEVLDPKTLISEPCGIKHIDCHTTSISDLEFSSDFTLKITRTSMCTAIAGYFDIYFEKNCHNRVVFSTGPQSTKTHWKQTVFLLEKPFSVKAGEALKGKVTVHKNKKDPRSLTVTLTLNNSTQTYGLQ
From the text: S-adenosylmethionine (SAM), S-adenosylhomocysteine (SAH), bicine, Tween20, dimethylsulfoxide (DMSO), bovine skin gelatin (BSG), isopropyl-β-D-thiogalactopyranoside (IPTG), and Tris(2-carboxyethyl)phosphine hydrochloride solution (TCEP) were purchased from Sigma-Aldrich at the highest level of purity possible. ^3H-SAM was purchase from American Radiolabeled Chemicals with a specific activity of 80 Ci/mmol. 384-well streptavidin Flashplates were purchased from PerkinElmer.
Peptide containing the classic RMT substrate motif was synthesized with an N-terminal linker-affinity tag motif and a C-terminal amide cap by 21st Century Biochemicals. The peptide was purified by high-performance liquid chromatography (HPLC) to greater than 95% purity and confirmed by liquid chromatography mass spectrometry (LC-MS). The sequence was Biot-Ahx-[…]-amide (SEQ ID NO.:11).
Full-length human PRMT3 (NM_005788.3) isoform 1 transcript clone was amplified from an HEK 293 cDNA library and subcloned into pGEX-KG (GE Life Sciences). The resulting construct encodes an N-terminal GST tag and a thrombin cleavage sequence ([…] […] […] […]) (SEQ ID NO.: 12) fused directly to Cys 2 of PRMT3.
E. coli (BL21(DE3) Gold, Stratagene) made competent by the CaCl2 method were transformed with the PRMT3 construct and ampicillin selection. Protein over-expression was accomplished by growing the PRMT3 expressing E. coli clone and inducing expression with 0.3 mM IPTG at 16° C. The culture was grown for 12 hours, harvested by centrifugation, and stored at −80° C. for purification.
GST-tagged PRMT3 was eluted with 50 mM Tris, 2 mM glutathione, pH 7.1 and 50 mM Tris, 20 mM glutathione, pH 7.1. Pooled fractions were dialysed in 20 mM Tris, 50 mM NaCl, 5% glycerol, 1 mM EDTA, 1 mM DTT, pH7.5 (Buffer B) and applied to a Q Sepharose Fast Flow column. GST-tagged PRMT3 was eluted by 500 mM NaCl in buffer B. Pooled fractions were dialyzed in 25 mM phosphate buffer, 100 mM NaCl, 5% glycerol, 2 mM DTT, pH 6.8 (Buffer C) and loaded on to a ceramic hydroxyapatite column. GST-tagged PRMT3 eluted with 25-400 mM phosphate in buffer C. Protein was concentrated and buffer was exchanged to 20 mM Tris, 150 mM NaCl, 5% glycerol, 5 mM β-mercaptoethanol, pH7.8 by ultrafiltration. The purity of recovered protein was 70%.
General Procedure for PRMT3 Enzyme Assays on Peptide Substrates.
The assays were all performed in a buffer consisting of 20 mM Bicine (pH=7.6), 1 mM TCEP, 0.005% BSG, and 0.002% Tween 20, prepared on the day of use. Compounds in 100% DMSO (1 ul) were spotted into a polypropylene 384-well V-bottom plates (Greiner) using a Platemate Plus outfitted with a 384-channel head (Thermo Scientific). DMSO (1 ul) was added to Columns 11, 12, 23, 24, rows A-H for the maximum signal control and 1 ul of SAH, a known product and inhibitor of PRMT3, was added to columns 11, 12, 23, 24, rows I-P for the minimum signal control. A cocktail (40 ul) containing the PRMT3 enzyme was added by Multidrop Combi (Thermo-Fisher). The compounds were allowed to incubate with PRMT3 for 30 min at room temperature, then a cocktail (10 ul) containing SAM and peptide was added to initiate the reaction (final volume=51 ul). The final concentrations of the components were as follows: PRMT3 was 0.5 nM, ^3H-SAM was 100 nM, non-radiolabeled SAM was 1.8 uM, peptide was 330 nM, SAH in the minimum signal control wells was 1 mM, and the DMSO concentration was 2%. The assays were stopped by the addition of potassium chloride (10 ul) to a final concentration of 100 mM. 50 ul of the reaction in the 384-well polypropylene plate was then transferred to a 384-well Flashplate and the biotinylated peptides were allowed to bind to the streptavidin surface for at least 1 hour before being washed once with 0.1% Tween20 in a Biotek ELx405 plate washer. […]

Compound CC(C)Cc1ccc(-c2n[nH]cc2CN(C)CCN)cc1 [Compound 165] has an EC30 [1] of 660 nM and an IC50 [2] of 1730 nM.
